Experimental findings from patent US8853424B2 (Japan Science and Technology Agency, priority 2008, dated 2014) are described below.

The subject of one test is transglutaminase (TGase). The experiment in a line: Measurement of TG (TGase inhibitory activity, monodansyl cadaverine / N,N-dimethylcasein fluorescence, FDSS 3000). The class given is biochemical. Put shortly: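 Compound (1 μL of 10 mM stock) added to 0.1 mL reaction: 100 mM HEPES-NaOH pH 7.5, 1 mM CaCl2, 20 μM monodansyl cadaverine, 0.05 mg/mL N,N-dimethylcasein, 5 μg/mL TGase. Rate of fluorescence change at 340 nm measured; DMSO control set to 100; TG50 is the concentration halving activity.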

The test system of test [1] is Truncated N-terminal huntington 150 Q-EGFP-Neuron 2a cells. As to the kind of experiment: Measurement of x-Fold (polyglutamine aggregation inhibitory activity). The class given is cell-based. On the procedure: In the present invention, the polyglutamine aggregation inhibitory activity (x-Fold) can be measured, for example, by the method described in the Example.
The number of the aggregated cells, and the total number of cells were counted by Array Scan V T1 (manufactured by Cellomics, Pittuburg, USA), and the ratio of the aggregated cells to the total number of cells was determined (x-Fold). […]

Setting [2] is: ratio of aggregated cells to total number of cells, compound 20 μM, 20 hr, almost 1 without compound, smaller = stronger inhibition.
Setting [3] is: TGase activity with compound (10 mM, 1 μL in 0.1 ml enzyme reaction solution), DMSO control taken as 100.
Where [4] appears, read: TGase inhibitory activity value, Table 1.
Where [5] appears, read: polyglutamine aggregation inhibitory activity, Table 1.

As to `CN(C)CCOB(c1ccccc1)c1ccc(COCc2ccc(B(OCCN(C)C)c3ccccc3)cc2)cc1` [Example 152, di(4,4′-phenyldimethylaminoethoxyboryl)benzylether], the “TGase activity remaining (% of DMSO control = 100)” value with transglutaminase (TGase) (TGase inhibitory activity value, Table 1, listed as 1073) worked out at 54. In addition, the x-Fold worked out at 1.07 in test [1] (polyglutamine aggregation inhibitory activity, Table 1, listed as 1073) and 1.07 in test [1] (setting [2]).

`NCCNCCOB(c1ccccc1)c1ccccc1` [Example 154, diphenyl 2-aminoethylaminoethyl borinate]: the “TGase activity remaining (% of DMSO control = 100)” value in the test on transglutaminase (TGase) (setting [3]) and in the test on transglutaminase (TGase) (setting [4]) was 105 throughout. Moreover, the x-Fold was 0.96- in test [1] (setting [5]) and 0.96 in test [1] (setting [2]).

Regarding `FC(F)(F)c1ccc(B(OCc2ccccn2)c2ccc(C(F)(F)F)cc2)cc1` [Example 155, di(trifluoromethylphenyl) 2-pyridinomethylborinate], the “TGase activity remaining (% of DMSO control = 100)” value with transglutaminase (TGase) (setting [3]) amounted to 100. The x-Fold in test [1] (setting [2]) turned out to be 1.02.

Consider `CCCCB(CCCC)OC(=O)C(C)N` (stereo not shown) [Example 159, dibutyl(alanine-O,N)borane], for which the “TGase activity remaining (% of DMSO control = 100)” value in the test on transglutaminase (TGase) (setting [3]) and in the test with transglutaminase (TGase) (setting [4]) was 102 in each case. Moreover, the x-Fold in test [1] (setting [5]) and in test [1] (setting [2]) was 0.96 throughout.

`Cc1ccc(Cl)cc1B(OC(=O)C(N)CCCNC(N)=O)c1cc(Cl)ccc1C` (stereo not shown) [Example 160, di(3-chloro-6-methyl-phenyl)(citrullinate-O,N)borane]: the “TGase activity remaining (% of DMSO control = 100)” value in the test on transglutaminase (TGase) (setting [3]) and in the test on transglutaminase (TGase) (setting [4]) was 88 in each case. In addition, the x-Fold in test [1] (setting [5]) and in test [1] (setting [2]) was 1.02 throughout.

Turning to `Cc1ccc(B(OCC2CCCCN2C)c2ccc(C)c(Cl)c2)cc1Cl` (stereo not shown) [Example 163, di(3-chloro-4-methylphenyl)N-methylpiperidinomethylborinate], the “TGase activity remaining (% of DMSO control = 100)” value with transglutaminase (TGase) (setting [3]) amounted to 109. The x-Fold in test [1] (setting [2]) was 1.00.

For the compound `COCOCc1ccc(B(OCCN(C)C)c2ccc(Oc3ccc(B(OCCN(C)C)c4ccccc4)cc3)cc2)cc1` [Example 167, (4-(phenyl-dimethylaminoethoxyboryl)phenyl)-(4′-(methoxymethoxymethylphenyl-dimethylaminoethoxyboryl)phenyl)ether], the “TGase activity remaining (% of DMSO control = 100)” value in the test on transglutaminase (TGase) (setting [3]) and with transglutaminase (TGase) (setting [4]) was 21 each time. For the same compound, the x-Fold in test [1] (setting [5]) and in test [1] (setting [2]) was 0.71 throughout.

As for `CNCCOB(c1ccccc1)c1ccc(Oc2ccc(B(OCCNC)c3ccc(COCOC)cc3)cc2)cc1` [Example 168, (4-(phenyl-N-methylaminoethoxyboryl)phenyl)-(4′-(methoxymethoxymethylphenyl-N-methylaminoethoxyboryl)phenyl)ether], the “TGase activity remaining (% of DMSO control = 100)” value with transglutaminase (TGase) (setting [3]) and in the test on transglutaminase (TGase) (setting [4]) was 35 in each case. Further, the x-Fold in test [1] (setting [5]) and in test [1] (setting [2]) was 0.72 in each case.

For `Cc1ccc(Cl)cc1B(O)c1cc(Cl)ccc1C` [Example 171, di(3-chloro-6-methylphenyl)borinic acid], the “TGase activity remaining (% of DMSO control = 100)” value in the test on transglutaminase (TGase) (setting [3]) was determined as 98. In addition, the x-Fold in test [1] (setting [2]) was determined as 0.71.

`c1ccc(B2OCCN3CCN(CCOB(c4ccccc4)c4cccc(c4)COCc4cccc2c4)CC3)cc1` [Example 173, (3,3′-(phenylpiperazino-O,O-ethoxyboryl)benzyl)ether]: the “TGase activity remaining (% of DMSO control = 100)” value in the test on transglutaminase (TGase) (setting [3]) and in the test with transglutaminase (TGase) (setting [4]) was 122 throughout. Besides, the x-Fold in test [1] (setting [5]) and in test [1] (setting [2]) was 1.06 throughout.

In the case of `NCC(N)C(=O)OB(c1ccccc1)c1ccccc1` (stereo not shown) [Example 174, diphenyl(2,3-diaminopropionate-O,N)borane], the “TGase activity remaining (% of DMSO control = 100)” value was 103 with transglutaminase (TGase) (setting [3]) and 103 in the test with transglutaminase (TGase) (TGase inhibitory activity value, Table 1, listed as 2031-4). Moreover, the x-Fold in test [1] (polyglutamine aggregation inhibitory activity, Table 1, listed as 2031-4) is on record as 0.99; in test [1] (setting [2]), 0.99.
